Converted amounts (≈) assume the structure as drawn. The source made the active and inactive calls. The rule behind the calls is not given here.
Experiments:
[1] = Cytotoxicity against HEK293 cells assessed as reduction in cell viability measured after 24 hrs by CCK-8 method; assay type: toxicity, cell-based; conditions: human
Staphylococcus aureus [2] = experiment: Upregulation of multidrug efflux pump genes in Staphylococcus aureus ATCC6538 at 5 ug/ml incubated for 2 hrs by RNA sequencing analysis; assay type: functional; conditions: dose 5.0 µg/ml
Staphylococcus aureus [3] = experiment: Induction of membrane morphological changes in Staphylococcus aureus ATCC6538 assessed as formation of cell pit at 5 times of MIC measured after 0.5 hrs by FE-SEM analysis; assay type: functional, organism-based
[4] = Toxicity in BALB/c mouse assessed as as change in ALT level at 25 to 50 mg/kg, iv; assay type: organism-based; conditions: in vivo, dose 25-50 mg/kg
Cell membrane [5] = experiment: Disruption of cell membrane integrity in methicillin resistant Staphylococcus aureus clinical isolate MRS153 assessed as increase in fluorescence intensity at 1 to 26 times MIC measured upto 36 mins ethidium bromide uptake assay; assay type: cell membranes
[6] = Selectivity index, ratio of HC50 for rabbit Red blood cell to MIC for Staphylococcus aureus ATCC6538; assay type: toxicity; conditions: red blood cells (erythrocytes), read-out: Selectivity Index
Cell membrane [7] = experiment: Induction of inner membrane permeabilization in methicillin resistant Staphylococcus aureus clinical isolate MRS153 assessed as increase in red fluorescence at 5 ug/ml by PI staining based analysis; assay type: cell membranes; conditions: dose 5.0 µg/ml
[8] = Cytotoxicity against African green monkey Vero E6 cells assessed as reduction in cell viability measured after 24 hrs by CCK-8 method; assay type: toxicity, cell-based, Chlorocebus sabaeus, Vero C1008
Staphylococcus aureus [9] = experiment: Antimicrobial activity against methicillin resistant Staphylococcus aureus clinical isolate MRS121 assessed as reduction in bacterial growth incubated for 24 hrs by two-fold broth dilution method; assay type: functional
Staphylococcus aureus [10] = experiment: Antimicrobial activity against methicillin resistant Staphylococcus aureus clinical isolate MRS153 assessed as increase in ROS levels measured upto 90 mins by H2DCFDA probe based flow cytometry; assay type: functional, organism-based
Streptomyces albus = experiment: Antimicrobial activity against Streptomyces albus SHBC D11158 assessed as reduction in bacterial growth incubated for 24 hrs by two-fold broth dilution method; assay type: functional
Staphylococcus aureus [11] = experiment: Antimicrobial activity against methicillin resistant Staphylococcus aureus clinical isolate MRS84 assessed as reduction in bacterial growth incubated for 24 hrs by two-fold broth dilution method; assay type: functional
Staphylococcus aureus [12] = experiment: Antimicrobial activity against methicillin resistant Staphylococcus aureus clinical isolate MRS153 assessed as proton dynamic dissipation at pH 5 to 11; assay type: functional, organism-based
Staphylococcus aureus [13] = experiment: Antimicrobial activity against Staphylococcus aureus ATCC6538 assessed as proton dynamic dissipation at pH 5 to 11; assay type: functional, organism-based
Cell membrane [14] = experiment: Induction of Outer membrane disruption in Staphylococcus aureus ATCC6538 assessed as […] in fluorescence intensity measured upto 30 mins by NPN dye based fluorescence analysis; assay type: cell membranes
Staphylococcus aureus [15] = experiment: Bactericidal activity against Staphylococcus aureus ATCC6538 at 5 ug/ml measured upto 150 mins; assay type: functional, organism-based; conditions: dose 5.0 µg/ml
Cell membrane [16] = experiment: Induction of inner membrane permeabilization in Staphylococcus aureus ATCC6538 assessed as increase in red fluorescence at 5 ug/ml by PI staining based analysis; assay type: cell membranes; conditions: dose 5.0 µg/ml
Cell membrane [17] = experiment: Induction of inner membrane permeabilization in methicillin resistant Staphylococcus aureus clinical isolate MRS153 assessed as increase in […] fluorescence at 5 ug/ml by PI staining based analysis; assay type: cell membranes; conditions: dose 5.0 µg/ml
Staphylococcus aureus [18] = experiment: Antibiofilm activity against Staphylococcus aureus clinical isolate MRS153 assessed as reduction in biofilm formation at 1 to 32 ug/ml incubated for 20 to 22 hrs by crystal violet staining based analysis; assay type: functional, organism-based; conditions: dose 1-32 µg/ml, time 20-22 hrs
[19] = Cytotoxicity against human HaCaT cells assessed as reduction in cell viability measured after 24 hrs by CCK-8 method; assay type: toxicity, cell-based
Staphylococcus aureus [20] = experiment: Antimicrobial activity against methicillin resistant Staphylococcus aureus clinical isolate MRS207 assessed as reduction in bacterial growth incubated for 24 hrs by two-fold broth dilution method; assay type: functional
Staphylococcus aureus [21] = experiment: Antimicrobial activity against methicillin resistant Staphylococcus aureus clinical isolate MRS273 assessed as reduction in bacterial growth incubated for 24 hrs by two-fold broth dilution method; assay type: functional
Staphylococcus aureus [22] = experiment: Induction of membrane morphological changes in Staphylococcus aureus ATCC6538 assessed as cell surface wrinkling at 5 times of MIC measured after 0.5 hrs by FE-SEM analysis; assay type: functional, organism-based
[23] = Toxicity in BALB/c mouse assessed as as change in AST level at 25 to 50 mg/kg, iv; assay type: organism-based; conditions: in vivo, dose 25-50 mg/kg
Staphylococcus aureus [24] = experiment: Antimicrobial activity against methicillin resistant Staphylococcus aureus clinical isolate MRS108 assessed as reduction in bacterial growth incubated for 24 hrs by two-fold broth dilution method; assay type: functional
[25] = Hemolytic activity in rabbit Red blood cell assessed as hemolysis incubated for 1 hr by two-fold microdilution method; assay type: toxicity, cell-based, Oryctolagus cuniculus, Erythrocyte; conditions: red blood cells (erythrocytes)
Staphylococcus hominis = experiment: Bactericidal activity against multidrug-resistant Staphylococcus hominis at 5 ug/ml measured upto 150 mins; assay type: functional, organism-based; conditions: dose 5.0 µg/ml
Staphylococcus aureus [26] = experiment: Induction of membrane morphological changes in Staphylococcus aureus ATCC6538 assessed as cell rupture at 5 times of MIC measured after 0.5 hrs by FE-SEM analysis; assay type: functional, organism-based
Staphylococcus aureus [27] = experiment: Antimicrobial activity against Staphylococcus aureus ATCC6538 assessed as increase in ROS levels measured upto 180 mins in presence of chloramphenicol by H2DCFDA probe based flow cytometry; assay type: functional, organism-based
Staphylococcus aureus [28] = experiment: Antibiofilm activity against Staphylococcus aureus ATCC6538 assessed as reduction in biofilm formation at 1 to 32 ug/ml incubated for 20 to 22 hrs by crystal violet staining based analysis; assay type: functional, organism-based; conditions: dose 1-32 µg/ml, time 20-22 hrs
[29] = Binding affinity to Staphylococcus aureus ATCC6538 Phosphatidylethanolamine assessed as dissociation constant by ITC analysis
Cell membrane [30] = experiment: Induction of cytoplasmic membrane depolarization in Staphylococcus aureus ATCC6538 assessed as increase in fluorescence intensity measured upto 120 mins by DiSC3(5) dye based fluorescence method; assay type: cell membranes
Staphylococcus aureus [31] = experiment: Bactericidal activity against methicillin-resistant Staphylococcus aureus clinical isolate MRS97 at 5 ug/ml measured upto 150 mins; assay type: functional, organism-based; conditions: dose 5.0 µg/ml
[32] = Toxicity in BALB/c mouse assessed as effect on body weight at 50 mg/kg, iv measured upto 8 days; assay type: organism-based; conditions: in vivo, 192 h, time < 8 day
Cell membrane [33] = experiment: Induction of inner membrane permeabilization in methicillin resistant Staphylococcus aureus clinical isolate MRS153 assessed as disruption of cell membrane by measuring rightward shift measured after by PI staining based flow cytometry analysis; assay type: cell membranes
Staphylococcus aureus [34] = experiment: In vivo antibacterial activity against methicillin-resistant Staphylococcus aureus clinical isolate MRS153 infected in C57BL/6N mouse model assessed as reduction in bacterial load in liver at 3.125 to 12.5 mg/kg, iv measured after 24 hrs; assay type: functional, organism-based; conditions: dose 3.125-12.5 mg/kg
Peptidoglycan = experiment: Binding affinity to methicillin resistant Staphylococcus aureus clinical isolate MRS153 peptidoglycan assessed as change in MIC at upto 256 ug/ml measured after 22 hrs; conditions: dose <= 256.0 µg/ml
Staphylococcus aureus [35] = experiment: Antimicrobial activity against Staphylococcus aureus ATCC6538 assessed as reduction in bacterial growth incubated for 24 hrs by two-fold broth dilution method; assay type: functional
Staphylococcus aureus [36] = experiment: Antimicrobial activity against Staphylococcus aureus N315 assessed as reduction in bacterial growth incubated for 24 hrs by two-fold broth dilution method; assay type: functional
Staphylococcus aureus [37] = experiment: Bactericidal activity against methicillin-resistant Staphylococcus aureus clinical isolate MRS1 at 5 ug/ml measured upto 150 mins; assay type: functional, organism-based; conditions: dose 5.0 µg/ml

## O=C(CCC(F)(F)F)N(Cc1cc2ccccc2s1)c1cc(-c2noc(C(F)(F)F)n2)ccc1O
[1]
  IC50 at 24 h: 16.9 µg/mL (≈ 32.8 µM)
Staphylococcus aureus [2]
  Activity: Active
Staphylococcus aureus [3]
  Activity: Active
[4]
  Activity: Non-Toxic
Cell membrane [5]
  Activity: Active
[6]
  selectivity ratio: > 1000
Cell membrane [7]
  Activity: Active
[8]
  IC50 at 24 h: > 25 µg/mL
Staphylococcus aureus [9]
  MIC: 1 µg/mL (≈ 1.94 µM)
Staphylococcus aureus [10]
  Activity: Active
Streptomyces albus
  MIC: < 0.5 µg/mL
Staphylococcus aureus [11]
  MIC: 2 µg/mL (≈ 3.88 µM)
Staphylococcus aureus [12]
  Activity: Active
Staphylococcus aureus [13]
  Activity: Active
Cell membrane [14]
  Activity: Dose-Dependent Effect
Staphylococcus aureus [15]
  Activity: Active
Cell membrane [16]
  Activity: Active
Cell membrane [17]
  Activity: Active
Staphylococcus aureus [18]
  Activity: Active
[19]
  IC50 at 24 h: > 25 µg/mL
Staphylococcus aureus [20]
  MIC: 1 µg/mL (≈ 1.94 µM)
Staphylococcus aureus [21]
  MIC: 1 µg/mL (≈ 1.94 µM)
Staphylococcus aureus [22]
  Activity: Active
[23]
  Activity: Non-Toxic
Staphylococcus aureus [24]
  MIC: 1 µg/mL (≈ 1.94 µM)
[25]
  HC50 at 1 h: 2400 µg/mL
Staphylococcus hominis
  Activity: Active
Staphylococcus aureus [26]
  Activity: Active
Staphylococcus aureus [27]
  Activity: inactive
Staphylococcus aureus [28]
  Activity: Active
[29]
  Kd: 183 µM
Cell membrane [30]
  Activity: Active
Staphylococcus aureus [31]
  Activity: Active
[32]
  Activity: Non-Toxic
Cell membrane [33]
  Activity: Active
Staphylococcus aureus [34]
  Activity: Active
Peptidoglycan
  Activity: inactive
Staphylococcus aureus [35]
  MIC: 0.25 µg/mL (≈ 0.485 µM)
Staphylococcus aureus [36]
  MIC: 0.25 µg/mL (≈ 0.485 µM)
Staphylococcus aureus [37]
  Activity: Active
